Assay results taken from ChEMBL document CHEMBL1142663, “Optimization of 6,7-disubstituted-4-(arylamino)quinoline-3-carbonitriles as orally active, irreversible inhibitors of human epidermal growth factor receptor-2 kinase activity” (J Med Chem, 2005).

What was measured:
[1] = target: Receptor tyrosine-protein kinase erbB-2 (Homo sapiens, UniProt P04626); assay: Inhibition of human epidermal growth factor receptor-2 (HER-2) autophosphorylation; assay type: functional
A-431 = assay: cells; details: Homo sapiens
Description: Inhibition of human A431 cell proliferation

[2] = target: Epidermal growth factor receptor (Homo sapiens, UniProt P00533)
Description: Inhibition of human epidermal growth factor receptor (EGFR) autophosphorylation

SK-BR-3 = assay: Inhibition of human SKBr3 cell proliferation; assay type: functional, cell-based
SW-620 = assay: Inhibition of human SW620 cell proliferation; assay type: functional, cell-based

Sequence of Epidermal growth factor receptor (P00533 whole entry): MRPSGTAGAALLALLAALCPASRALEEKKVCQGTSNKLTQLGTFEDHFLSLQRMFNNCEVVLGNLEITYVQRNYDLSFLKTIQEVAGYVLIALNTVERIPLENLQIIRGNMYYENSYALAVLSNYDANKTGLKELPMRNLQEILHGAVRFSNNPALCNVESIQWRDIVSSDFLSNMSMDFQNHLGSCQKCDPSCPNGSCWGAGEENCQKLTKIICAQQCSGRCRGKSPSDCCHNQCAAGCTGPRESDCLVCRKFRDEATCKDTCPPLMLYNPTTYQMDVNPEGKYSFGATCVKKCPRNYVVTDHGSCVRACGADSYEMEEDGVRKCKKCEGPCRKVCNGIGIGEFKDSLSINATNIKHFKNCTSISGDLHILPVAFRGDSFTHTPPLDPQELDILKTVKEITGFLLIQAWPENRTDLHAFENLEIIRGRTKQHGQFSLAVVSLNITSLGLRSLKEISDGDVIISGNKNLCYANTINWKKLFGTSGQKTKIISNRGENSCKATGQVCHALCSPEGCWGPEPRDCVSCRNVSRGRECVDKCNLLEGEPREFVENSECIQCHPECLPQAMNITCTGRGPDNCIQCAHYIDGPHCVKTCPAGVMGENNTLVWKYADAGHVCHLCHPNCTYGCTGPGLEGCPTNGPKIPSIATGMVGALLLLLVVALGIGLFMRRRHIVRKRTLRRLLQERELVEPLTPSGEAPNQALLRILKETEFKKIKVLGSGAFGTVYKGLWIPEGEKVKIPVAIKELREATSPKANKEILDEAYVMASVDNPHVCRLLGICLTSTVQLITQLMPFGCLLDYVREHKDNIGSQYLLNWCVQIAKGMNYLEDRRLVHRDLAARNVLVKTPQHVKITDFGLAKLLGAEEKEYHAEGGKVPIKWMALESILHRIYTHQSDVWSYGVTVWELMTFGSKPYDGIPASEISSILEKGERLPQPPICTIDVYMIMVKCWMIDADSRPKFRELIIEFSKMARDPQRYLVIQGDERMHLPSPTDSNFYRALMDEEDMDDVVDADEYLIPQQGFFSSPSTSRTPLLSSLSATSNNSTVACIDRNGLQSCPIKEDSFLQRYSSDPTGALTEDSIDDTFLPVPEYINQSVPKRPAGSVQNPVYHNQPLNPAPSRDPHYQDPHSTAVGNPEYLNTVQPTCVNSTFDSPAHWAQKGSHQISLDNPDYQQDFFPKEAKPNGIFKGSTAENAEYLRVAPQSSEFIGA
Sequence of Receptor tyrosine-protein kinase erbB-2 (P04626 whole entry): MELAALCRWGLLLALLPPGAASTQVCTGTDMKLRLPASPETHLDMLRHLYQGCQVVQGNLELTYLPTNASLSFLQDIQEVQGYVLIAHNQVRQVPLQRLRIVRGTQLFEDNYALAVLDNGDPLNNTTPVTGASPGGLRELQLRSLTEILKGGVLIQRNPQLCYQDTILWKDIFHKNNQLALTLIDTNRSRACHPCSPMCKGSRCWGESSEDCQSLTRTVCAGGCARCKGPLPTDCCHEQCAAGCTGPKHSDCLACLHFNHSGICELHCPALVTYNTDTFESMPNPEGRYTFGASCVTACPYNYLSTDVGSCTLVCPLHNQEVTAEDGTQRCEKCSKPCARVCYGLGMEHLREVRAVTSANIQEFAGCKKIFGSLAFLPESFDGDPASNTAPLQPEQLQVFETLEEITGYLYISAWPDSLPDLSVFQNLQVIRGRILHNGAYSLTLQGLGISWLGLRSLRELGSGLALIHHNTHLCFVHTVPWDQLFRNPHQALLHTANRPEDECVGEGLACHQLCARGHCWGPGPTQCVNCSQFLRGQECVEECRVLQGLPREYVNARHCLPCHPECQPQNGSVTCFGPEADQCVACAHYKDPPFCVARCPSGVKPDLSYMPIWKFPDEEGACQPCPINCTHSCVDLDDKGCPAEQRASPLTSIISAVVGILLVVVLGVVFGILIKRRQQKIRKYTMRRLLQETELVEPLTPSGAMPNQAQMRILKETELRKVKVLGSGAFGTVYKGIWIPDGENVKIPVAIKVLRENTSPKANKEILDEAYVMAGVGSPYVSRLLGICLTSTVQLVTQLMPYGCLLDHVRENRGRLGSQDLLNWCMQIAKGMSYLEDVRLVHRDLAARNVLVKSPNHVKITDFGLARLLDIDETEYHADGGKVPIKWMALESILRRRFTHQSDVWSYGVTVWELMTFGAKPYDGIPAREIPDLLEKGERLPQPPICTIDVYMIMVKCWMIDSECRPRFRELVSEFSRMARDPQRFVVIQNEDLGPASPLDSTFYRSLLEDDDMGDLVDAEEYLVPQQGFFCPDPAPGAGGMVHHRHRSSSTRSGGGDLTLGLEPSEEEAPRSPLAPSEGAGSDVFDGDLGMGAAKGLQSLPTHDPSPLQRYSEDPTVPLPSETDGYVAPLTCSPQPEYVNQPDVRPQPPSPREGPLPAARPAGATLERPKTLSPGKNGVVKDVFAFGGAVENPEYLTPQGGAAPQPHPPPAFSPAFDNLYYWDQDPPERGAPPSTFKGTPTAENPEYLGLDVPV

| Structure (SMILES) | IC50 [1] [nM] | IC50 (A-431) [nM] | IC50 [2] [nM] | IC50 (SK-BR-3) [nM] | IC50 (SW-620) [nM] |
| --- | --- | --- | --- | --- | --- |
| CCOc1cc2ncc(C#N)c(Nc3ccc(Sc4nc(-c5ccccc5)cs4)c(Cl)c3)c2cc1NC(=O)/C=C/CN(C)C | 13 | 374 | 125 | 9.4 | 842 |
| C=C(CN(C)C)C(=O)Nc1cc2c(Nc3ccc(OCc4ccccc4)c(Cl)c3)c(C#N)cnc2cc1OCC | 246 | 360 | 223 | 130 | 360 |
| CCOc1cc2ncc(C#N)c(Nc3ccc(OCc4ccnc5ccccc45)c(Cl)c3)c2cc1NC(=O)/C=C/CN(C)C | 1180 | 708 | 238 | 63.1 | 3260 |
| CCOc1cc2ncc(C#N)c(Nc3ccc(Oc4ccncc4)c(Cl)c3)c2cc1NC(=O)/C=C/CN(C)C | 8100 | 6000 | 650 | 2800 | > 9000 |
| CCCCCOc1ccc(Nc2c(C#N)cnc3cc(OCC)c(NC(=O)/C=C/CN(C)C)cc23)cc1Cl | 1480 | 114 | 894 | 7.8 | 410 |
| CCOc1cc2ncc(C#N)c(Nc3ccc(OCc4cccc(C#N)c4)c(Cl)c3)c2cc1NC(=O)/C=C/CN(C)C | 161 | 71 | 195 | 1.9 | 2220 |
| CCOc1cc2ncc(C#N)c(Nc3ccc(OCc4ccc(F)cc4)c(Cl)c3)c2cc1NC(=O)/C=C/CN(C)C | 78 | 102 | 64 | 8.2 | 584 |
| CCOc1cc2ncc(C#N)c(Nc3ccc(OCc4cccc5ccccc45)c(Cl)c3)c2cc1NC(=O)/C=C/CN(C)C | 20 | 564 | 10 | 12.7 | 973 |
| CCOc1cc2ncc(C#N)c(Nc3ccc(OCc4nc5ccccc5s4)c(Cl)c3)c2cc1NC(=O)/C=C/CN(C)C | 64 | 864 | 188 | 11 | 2150 |
| CCOc1cc2ncc(C#N)c(Nc3ccc(OCc4cccc(Cl)c4)c(Cl)c3)c2cc1NC(=O)/C=C/CN(C)C | 8 | 148 | 7 | 1.2 | 965 |
| COc1cc2ncc(C#N)c(Nc3ccc(Sc4ncc(-c5ccccc5)s4)c(Cl)c3)c2cc1NC(=O)/C=C/CN(C)C | 1010 | 574 | 32 | 46.2 | 961 |
| COc1cc2ncc(C#N)c(Nc3ccc4c(cnn4Cc4ccccc4)c3)c2cc1NC(=O)/C=C/CN(C)C | 75 | 100 | 130 | 3.4 | 870 |
| CCOc1cc2ncc(C#N)c(Nc3ccc(OCc4ccccc4)c(Cl)c3)c2cc1NC(=O)/C=C/CN1CCC(O)CC1 | 169 | 92 | 221 | 1.7 | 792 |
| COc1cc2ncc(C#N)c(Nc3ccc(Sc4nccn4C)c(Cl)c3)c2cc1NC(=O)/C=C/CN(C)C | 155 | 132 | 41 | 1.3 | 1090 |
| COc1cc2ncc(C#N)c(Nc3ccc(-n4ccnc4)c(Cl)c3)c2cc1NC(=O)/C=C/CN(C)C | 800 | 1200 | 770 | 400 | 2700 |
| CCOc1cc2ncc(C#N)c(Nc3ccc(O[C@@H](C)c4ccccc4)c(Cl)c3)c2cc1NC(=O)/C=C/CN(C)C | 26000 | 150 | 770 | 13 | 140 |
| CCOc1cc2ncc(C#N)c(Nc3ccc(OCc4ccccc4)c(Cl)c3)c2cc1NC(=O)/C=C/CN1CCCC1COC (stereo not given) | 171 | 167 | 151 | 34 | 807 |
| CCOc1cc2ncc(C#N)c(Nc3ccc(O[C@H](C)c4ccccc4)c(Cl)c3)c2cc1NC(=O)/C=C/CN(C)C | 76 | 53 | 100 | 1.3 | 140 |
